Drawing on patent US7417144B2, “Factor Xa inhibitors” (Hoffman-La Roche Inc., priority 2005, dated 2008), this text covers Ki for three compounds.

The structures appear in SMILES notation.

The assay addresses T1, human factor Xa (Homo sapiens, UniProt P00742).
T1 construct: purchased Enzyme Research Laboratories
Put plainly: Factor Xa chromogenic peptide substrate (S-2222) assay. It counts as biochemical. The following applies: apparent Ki from IC50 by Cheng-Prusoff; enzyme 3 nM, substrate S-2222, pH 7.8, room temperature. Here is the method:
Factor Xa activity was measured spectrophotometrically in microtiter plates in a final volume of 150 μl using the following conditions: Inhibition of human factor Xa (Enzyme Research Laboratories) was tested at an enzyme concentration of 3 nM using the chromogenic substrate S-2222 (Chromogenix AB, Mölndal, Sweden) at […]. The reaction kinetics of the enzyme and the substrate were linear with both time and the enzyme concentration. The inhibitors were dissolved in DMSO and tested at various concentrations up to 100 μM. The inhibitors were diluted using HNPT buffer consisting of HEPES 100 mM, NaCl 140 mM, PEG 6000 0.1% and Tween 80 0.02%, pH 7.8. The cleavage of S-2222 by human factor Xa was followed at 405 nm for 5 minutes at room temperature. The velocity of the reaction was determined by the autoreader from the slope of the linear regression fit to 7 time points (1 minute). The initial velocity for each inhibitor concentration was determined by the slope of at least 4 time points in the linear phase by a linear regression fit […]. Apparent dissociation constants Ki were calculated according to Cheng and Prusoff [Cheng, Y. C.; Prusoff, W. H. Relationship between the inhibition constant (Ki) and the concentration of the inhibitor that causes 50 percent inhibition (IC50) of an enzyme reaction. Biochem. Pharmacol. 1973, 22, 3099-3108.] based on the IC50 and the respective Km, determined previously (Ki=IC50/(1+S/Km)). The Km for the substrate used was determined under the conditions of the test with at least 5 substrate concentrations ranging from 0.5 to 15 times Km. [Lottenberg R, Hall J A, Blinder M, Binder E P, Jackson C M., The action of thrombin on peptide p-nitroanilide substrates. Substrate selectivity and examination of hydrolysis under different reaction conditions. Biochim Biophys Acta. 1983 Feb. 15; 742(3):539-57]. According to Eadie [Eadie G.S. The inhibition of cholinesterase by physostigmine and prostigmine. J. Biol. Chem. 1942, 146, 85-93.], the Km for S-2222 amounted to 613 μM.

T1 sequence (P00742 235-488 limits assumed): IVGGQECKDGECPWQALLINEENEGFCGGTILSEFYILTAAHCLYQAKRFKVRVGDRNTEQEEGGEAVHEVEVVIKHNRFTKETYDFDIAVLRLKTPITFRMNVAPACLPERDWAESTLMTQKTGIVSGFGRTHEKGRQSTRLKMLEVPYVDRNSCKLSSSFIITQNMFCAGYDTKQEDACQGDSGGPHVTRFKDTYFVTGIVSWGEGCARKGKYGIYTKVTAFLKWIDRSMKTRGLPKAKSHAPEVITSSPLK
T1 sequence (P00742 41-179 partner limits assumed): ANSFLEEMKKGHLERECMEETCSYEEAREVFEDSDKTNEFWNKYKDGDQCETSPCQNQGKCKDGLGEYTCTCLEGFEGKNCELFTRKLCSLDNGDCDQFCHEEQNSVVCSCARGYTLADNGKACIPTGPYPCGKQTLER

With `O=C(Nc1ccc(-n2ccccc2=O)cc1F)C1Cc2cccnc2CN1C(=O)Nc1ccc(Cl)cc1` (stereo not drawn) [Example 18, 5,8-Dihydro-6H-[1,7]naphthyridine-6,7-dicarboxylic acid 7-[(4-chloro-phenyl)-amide]6-{[2-fluoro-4-(2-oxo-2H-pyridin-1-yl)-phenyl]-amide}], the Ki came out at 12 nM. Regarding `O=C(Nc1ccc(-n2ccccc2=O)cc1F)C1Cc2cccnc2N1C(=O)Nc1ccc(Cl)cc1` (stereo not drawn) [Example 16, 2,3-Dihydro-pyrrolo[2,3-b]pyridine-1,2-dicarboxylic acid 1-[(4-chloro-phenyl)-amide]2-{[2-fluoro-4-(2-oxo-2H-pyridin-1-yl)-phenyl]-amide}], the Ki was determined as 51 nM. Turning to `Cn1ncc2c1CN(C(=O)Nc1ccc(Cl)cn1)[C@H]2C(=O)Nc1ccc(-n2ccccc2=O)cc1F` [Example 3, (R)-1-Methyl-4,6-dihydro-1H-pyrrolo[3,4-c]pyrazole-4,5-dicarboxylic acid 5-[(5-chloro-pyridin-2-yl)-amide]4-{[2-fluoro-4-(2-oxo-2H-pyridin-1-yl)-phenyl]-amide}], the Ki was 19 nM.
